Data published in US12077503B2, “Substituted cyclic amides and their use as herbicides” (FMC CORPORATION, priority 2015, dated 2024).

Legend:
Format in all cases: in vivo
[1] = system: barnyardgrass (Echinochloa crus-galli); assay: Test A preemergence; settings: Echinochloa crus-galli, pre-emergence, 240 h, 0 to 100 scale where 0 is no effect and 100 is complete control, read-out: Barnyardgrass plant response rating
Method in brief: (§1)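 Visual injury, scored on a 0–100 scale relative to untreated controls, was recorded about 10 d after application. Treatments were a preemergence soil spray over planted seeds or a postemergence spray on plants at the one- to two-leaf stage, 2 to 10 cm tall, all in loam soil–sand blend in the greenhouse.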

[2] = system: pigweed (Amaranthus retroflexus); assay: Test A preemergence; settings: Amaranthus retroflexus, pre-emergence, 240 h, 0 to 100 scale where 0 is no effect and 100 is complete control, read-out: Pigweed plant response rating
[3] = system: ragweed (common ragweed, Ambrosia elatior); assay: Test A preemergence; settings: Ambrosia artemisiifolia, pre-emergence, 240 h, 0 to 100 scale where 0 is no effect and 100 is complete control, read-out: Ragweed plant response rating
Method in brief: as §1

[4] = system: ryegrass, Italian (Italian ryegrass, Lolium multiflorum); assay: Test A preemergence; settings: Lolium multiflorum, pre-emergence, 240 h, 0 to 100 scale where 0 is no effect and 100 is complete control, read-out: Ryegrass, Italian plant response rating
Method in brief: as §1

[5] = system: Kochia (Kochia scoparia); assay: Test A preemergence; settings: Bassia scoparia, pre-emergence, 240 h, 0 to 100 scale where 0 is no effect and 100 is complete control, read-out: Kochia plant response rating
Method in brief: as §1

[6] = system: giant foxtail (Setaria faberii); assay: Test A preemergence; settings: Setaria faberi, pre-emergence, 240 h, 0 to 100 scale where 0 is no effect and 100 is complete control, read-out: Foxtail, Giant plant response rating
Method in brief: as §1

[7] = system: barnyardgrass (Echinochloa crus-galli); assay: Test B flooded paddy test; settings: Echinochloa crus-galli, 250 g ai/ha, Flood; 0 to 100 scale where 0 is no effect and 100 is complete control; read-out: Barnyardgrass plant response rating
Method in brief: (§2)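 Compound goes directly into floodwater once pots are flooded 3 cm above soil, targeting plants at two leaves; the water depth is then held for the test duration. Plants sit 13–15 d in a greenhouse and are rated visually, 100 denoting complete control.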

[8] = system: sedge, umbrella (small-flower umbrella sedge, Cyperus difformis); assay: Test B flooded paddy test; settings: Cyperus difformis, 250 g ai/ha, Flood; 0 to 100 scale where 0 is no effect and 100 is complete control; read-out: Sedge, Umbrella plant response rating
Method in brief: as §2

[9] = system: ducksalad (Heteranthera limosa); assay: Test B flooded paddy test; settings: Heteranthera limosa, 250 g ai/ha, Flood; 0 to 100 scale where 0 is no effect and 100 is complete control; read-out: Ducksalad plant response rating
Method in brief: as §2

[10] = system: rice (Oryra sativa); assay: Test B flooded paddy test; settings: Oryza sativa, 250 g ai/ha, Flood; 0 to 100 scale where 0 is no effect and 100 is complete control; read-out: Rice plant response rating
Method in brief: as §2

[11] = system: wheat (Triticum aestivum); assay: Test A postemergence; settings: Triticum aestivum, post-emergence, 240 h
Method in brief: as §1

[12] = system: Galium (catchweed bedstraw, Galium aparine); assay: Test A postemergence; settings: Galium, post-emergence, 240 h
Method in brief: as §1

[13] = system: barnyardgrass (Echinochloa crus-galli); assay: Test A postemergence; settings: Echinochloa crus-galli, post-emergence, 240 h
Method in brief: as §1

[14] = system: pigweed (Amaranthus retroflexus); assay: Test A postemergence; settings: Amaranthus retroflexus, post-emergence, 240 h
Method in brief: as §1

[15] = system: ragweed (common ragweed, Ambrosia elatior); assay: Test A postemergence; settings: Ambrosia artemisiifolia, post-emergence, 240 h
Method in brief: as §1

[16] = system: blackgrass (Alopecurus myosuroides); assay: Test A postemergence; settings: Alopecurus myosuroides, post-emergence, 240 h
Method in brief: as §1

[17] = system: ryegrass, Italian (Italian ryegrass, Lolium multiflorum); assay: Test A postemergence; settings: Lolium multiflorum, post-emergence, 240 h
Method in brief: as §1

[18] = system: Kochia (Kochia scoparia); assay: Test A postemergence; settings: Bassia scoparia, post-emergence, 240 h
Method in brief: as §1

[19] = system: corn (Zea mays); assay: Test A postemergence; settings: Zea mays, post-emergence, 240 h
Method in brief: as §1

[20] = system: giant foxtail (Setaria faberii); assay: Test A postemergence; settings: Setaria faberi, post-emergence, 240 h
Method in brief: as §1

[21] = 125 g ai/ha, preemergence, approx. 10 d

CN1C[C@H](c2csc3c2CCOC3)[C@@H](C(=O)Nc2ccc(F)c(F)c2F)C1=O [Compound 1077]
pest or weed control at 31 g/ha ([1]; 31 g ai/ha, Preemergence): 80%
pest or weed control at 125 g/ha [1, 21]: 100%
pest or weed control at 31 g/ha ([2]; 31 g ai/ha, Preemergence): 0%
pest or weed control at 125 g/ha [2, 21]: 0%
pest or weed control at 31 g/ha ([3]; 31 g ai/ha, Preemergence): 0%
pest or weed control at 125 g/ha [3, 21]: 0%
pest or weed control at 31 g/ha ([4]; 31 g ai/ha, Preemergence): 0%
pest or weed control at 125 g/ha [4, 21]: 10%
pest or weed control at 31 g/ha ([5]; 31 g ai/ha, Preemergence): 0%
pest or weed control at 125 g/ha [5, 21]: 20%
pest or weed control at 31 g/ha ([6]; 31 g ai/ha, Preemergence): 100%
pest or weed control at 125 g/ha [6, 21]: 100%
pest or weed control at 250 g/ha [7]: 85%
pest or weed control at 250 g/ha [8]: 0%
pest or weed control at 250 g/ha [9]: 90%
pest or weed control at 250 g/ha [10]: 15%
plant injury at 125 g/ha ([11]; 125 g ai/ha, postemergence, visual injury on 0 to 100 scale (0 no effect, 100 complete control), approx. 10 d, read-out: Wheat plant response rating): 0%
plant injury at 31 g/ha ([11]; Postemergence, 31 g ai/ha, visual injury after approx. 10 d, 0 to 100 scale, 0 no effect, 100 complete control, read-out: Plant response rating, Wheat): 0%
pest or weed control at 125 g/ha ([12]; 125 g ai/ha, postemergence, visual injury on 0 to 100 scale (0 no effect, 100 complete control), approx. 10 d, read-out: Galium plant response rating): 70%
pest or weed control at 31 g/ha ([12]; Postemergence, 31 g ai/ha, visual injury after approx. 10 d, 0 to 100 scale, 0 no effect, 100 complete control, read-out: Plant response rating, Galium): 20%
pest or weed control at 125 g/ha ([13]; 125 g ai/ha, postemergence, visual injury on 0 to 100 scale (0 no effect, 100 complete control), approx. 10 d, read-out: Barnyardgrass plant response rating): 90%
pest or weed control at 31 g/ha ([13]; Postemergence, 31 g ai/ha, visual injury after approx. 10 d, 0 to 100 scale, 0 no effect, 100 complete control, read-out: Plant response rating, Barnyardgrass): 70%
pest or weed control at 125 g/ha ([14]; 125 g ai/ha, postemergence, visual injury on 0 to 100 scale (0 no effect, 100 complete control), approx. 10 d, read-out: Pigweed plant response rating): 0%
pest or weed control at 31 g/ha ([14]; Postemergence, 31 g ai/ha, visual injury after approx. 10 d, 0 to 100 scale, 0 no effect, 100 complete control, read-out: Plant response rating, Pigweed): 0%
pest or weed control at 125 g/ha ([15]; 125 g ai/ha, postemergence, visual injury on 0 to 100 scale (0 no effect, 100 complete control), approx. 10 d, read-out: Ragweed plant response rating): 0%
pest or weed control at 31 g/ha ([15]; Postemergence, 31 g ai/ha, visual injury after approx. 10 d, 0 to 100 scale, 0 no effect, 100 complete control, read-out: Plant response rating, Ragweed): 0%
pest or weed control at 125 g/ha ([16]; 125 g ai/ha, postemergence, visual injury on 0 to 100 scale (0 no effect, 100 complete control), approx. 10 d, read-out: Blackgrass plant response rating): 30%
pest or weed control at 31 g/ha ([16]; Postemergence, 31 g ai/ha, visual injury after approx. 10 d, 0 to 100 scale, 0 no effect, 100 complete control, read-out: Plant response rating, Blackgrass): 0%
pest or weed control at 125 g/ha ([17]; 125 g ai/ha, postemergence, visual injury on 0 to 100 scale (0 no effect, 100 complete control), approx. 10 d, read-out: Ryegrass, Italian plant response rating): 20%
pest or weed control at 31 g/ha ([17]; Postemergence, 31 g ai/ha, visual injury after approx. 10 d, 0 to 100 scale, 0 no effect, 100 complete control, read-out: Plant response rating, Ryegrass, Italian): 0%
pest or weed control at 125 g/ha ([18]; 125 g ai/ha, postemergence, visual injury on 0 to 100 scale (0 no effect, 100 complete control), approx. 10 d, read-out: Kochia plant response rating): 0%
pest or weed control at 31 g/ha ([18]; Postemergence, 31 g ai/ha, visual injury after approx. 10 d, 0 to 100 scale, 0 no effect, 100 complete control, read-out: Plant response rating, Kochia): 0%
plant injury at 125 g/ha ([19]; 125 g ai/ha, postemergence, visual injury on 0 to 100 scale (0 no effect, 100 complete control), approx. 10 d, read-out: Corn plant response rating): 10%
Corn plant response rating (crop injury, 0 = no effect, 100 = complete kill) at 31 g/ha ([19]; Postemergence, 31 g ai/ha, visual injury after approx. 10 d, 0 to 100 scale, 0 no effect, 100 complete control): 0%
pest or weed control at 125 g/ha ([20]; 125 g ai/ha, postemergence, visual injury on 0 to 100 scale (0 no effect, 100 complete control), approx. 10 d, read-out: Foxtail, Giant plant response rating): 90%
pest or weed control at 31 g/ha ([20]; Postemergence, 31 g ai/ha, visual injury after approx. 10 d, 0 to 100 scale, 0 no effect, 100 complete control, read-out: Plant response rating, Foxtail, Giant): 50%
